Assay results taken from ChEMBL document CHEMBL1201862, “PubChem BioAssay data set” (2004).
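48-hour exposure; five concentrations; linearly interpolated endpoints. GI50 is the concentration that inhibits growth by half.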 The source made the active and inactive calls. No stated cut-off is given here; in the data, active = GI50 up to about 1.1 µM and inactive = higher.

How the values were obtained:
Experiment in all cases: NCI anticancer screen, dose series, 48 h
[1] = system: A498
[2] = system: A549
[3] = system: ACHN
[4] = system: EKVX
[5] = system: HOP-62
[6] = system: K562
[7] = system: M14
[8] = system: Malme-3M
[9] = system: NCI-H226
[10] = system: NCI-H460
[11] = system: OVCAR-8
[12] = system: SK-MEL-28
[13] = system: SK-OV-3
[14] = system: SNB-78
[15] = system: SR
[16] = system: SW-620
[17] = system: TK-10
[18] = system: UACC-257
[19] = system: RXF 393

Measured: GI50

COC(=O)/C(=N\NC(N)=O)C(C(=O)C(=O)Nc1ccccc1C(=O)OC)c1nc2ccc(C(=O)c3ccccc3)cc2nc1O (configuration not stated)
inactive: [1] > 100 µM | [2] > 100 µM | [3] > 100 µM | [4] > 100 µM | [5] > 100 µM | [6] > 100 µM | [7] > 100 µM | [8] > 100 µM | [9] > 100 µM | [10] > 100 µM | [11] > 100 µM | [12] > 100 µM | [13] > 100 µM | [14] > 100 µM | [15] > 100 µM | [16] > 100 µM | [17] > 100 µM | [18] > 100 µM

COc1ccc(/C(=N\NC(=O)C(=O)NN)C(c2ccc(OC)cc2)C2(O)C(=O)Nc3ccccc32)cc1 (configuration not stated)
inactive: [1] 48.8 µM | [2] 62.4 µM | [3] 82.2 µM | [4] > 100 µM | [5] 94.8 µM | [6] 26.7 µM | [7] > 100 µM | [8] 42.7 µM | [9] > 100 µM | [10] 60.3 µM | [11] > 100 µM | [12] > 100 µM | [13] > 100 µM | [14] > 100 µM | [15] 46 µM | [16] > 100 µM | [17] 69 µM

O=C1C2C3CC4C5C3C1C5C1(SCCS1)C42 (configuration not stated)
inactive: [1] > 100 µM | [2] > 100 µM | [3] > 100 µM | [5] > 100 µM | [6] > 100 µM | [7] > 100 µM | [8] > 100 µM | [9] > 100 µM | [10] > 100 µM | [11] > 100 µM | [19] > 100 µM | [12] > 100 µM | [13] > 100 µM | [14] > 100 µM | [15] > 100 µM | [16] > 100 µM | [17] > 100 µM | [18] > 100 µM

Cc1ccccc1C(=O)Oc1ccc(O)cc1
inactive: [1] > 100 µM | [2] > 100 µM | [3] > 100 µM | [4] > 100 µM | [5] > 100 µM | [6] > 100 µM | [7] > 100 µM | [8] > 100 µM | [9] > 100 µM | [10] > 100 µM | [11] > 100 µM | [19] > 100 µM | [13] > 100 µM | [14] > 100 µM | [16] > 100 µM | [17] > 100 µM | [18] > 100 µM

Cn1c(=O)nc2n(-c3ccc(Cl)cc3)c3ccc(Cl)cc3nc-2c1=O
inactive: [1] 5.58 µM | [2] 5.75 µM | [4] 12.9 µM | [5] 18 µM | [6] 5.02 µM | [7] 9.06 µM | [9] 11.5 µM | [10] 5.98 µM | [11] 3.98 µM | [19] 2.04 µM | [12] 9.23 µM | [13] 88.7 µM | [14] 14.8 µM | [15] 7.62 µM | [16] 4.44 µM | [17] 18.2 µM | [18] 3.4 µM

CCN(CC)CCn1c2c3ccccc3ccc2c2oc(=O)c3ccccc3c21
inactive: [2] > 100 µM | [3] > 100 µM | [4] > 100 µM | [5] 18.3 µM | [6] > 100 µM | [7] 45.5 µM | [8] > 100 µM | [10] 13.7 µM | [11] > 100 µM | [12] > 100 µM | [13] > 100 µM | [14] > 100 µM | [15] 34.7 µM | [16] > 100 µM | [17] > 100 µM | [18] > 100 µM

Cc1cc(O)nc(CNC(=O)Cc2ccccc2)n1
inactive: [1] > 100 µM | [2] > 100 µM | [3] > 100 µM | [4] > 100 µM | [5] > 100 µM | [6] > 100 µM | [7] > 100 µM | [8] > 100 µM | [9] > 100 µM | [10] > 100 µM | [11] > 100 µM | [19] > 100 µM | [12] > 100 µM | [13] > 100 µM | [14] > 100 µM | [16] > 100 µM | [17] > 100 µM | [18] > 100 µM

CC1=COC(=O)c2ccccc2N1
inactive: [2] > 100 µM | [3] > 100 µM | [4] > 100 µM | [5] > 100 µM | [6] > 100 µM | [7] > 100 µM | [8] > 100 µM | [9] > 100 µM | [10] > 100 µM | [11] > 100 µM | [19] > 100 µM | [12] > 100 µM | [13] > 100 µM | [14] > 100 µM | [15] > 100 µM | [16] > 100 µM | [17] > 100 µM

CCN(CC)CCNC(=O)c1ccccc1NC(=O)C(=O)Nc1ccccc1C(=O)NCCN(CC)CC
inactive: [1] > 100 µM | [2] > 100 µM | [3] 92.3 µM | [4] > 100 µM | [5] > 100 µM | [6] 16.4 µM | [7] 19.1 µM | [8] 21 µM | [9] > 100 µM | [10] 75 µM | [11] > 100 µM | [12] 45.4 µM | [13] > 100 µM | [14] > 100 µM | [15] 21.8 µM | [16] 18.5 µM | [17] > 100 µM | [18] 18.6 µM

COc1cc2ccc3c4cc(OC)c(OC)cc4c[n+](C)c3c2cc1O
inactive: [1] > 24.4 µM | [2] > 100 µM | [3] > 42.2 µM | [4] > 100 µM | [5] > 92.5 µM | [6] > 83.4 µM | [7] > 100 µM | [8] > 100 µM | [9] 9.16 µM | [10] > 26.7 µM | [11] 32.3 µM | [19] > 100 µM | [12] > 100 µM | [13] > 100 µM | [14] > 100 µM | [16] > 100 µM | [17] > 100 µM | [18] > 100 µM

CCCCN(CC)C(=O)C(=O)C1C(=O)Nc2ccccc2[S+]1[O-] (configuration not stated)
inactive: [1] > 100 µM | [2] > 100 µM | [3] > 100 µM | [4] 55.6 µM | [5] > 100 µM | [6] > 100 µM | [7] > 100 µM | [8] > 100 µM | [9] > 100 µM | [10] > 100 µM | [11] > 100 µM | [19] > 100 µM | [12] > 100 µM | [13] > 100 µM | [14] > 100 µM | [16] > 100 µM | [17] > 100 µM | [18] > 100 µM
